Results taken from ChEMBL document CHEMBL3875216, “Synthesis of antimicrobial glucosamides as bacterial quorum sensing mechanism inhibitors” (Bioorg Med Chem, 2017).

Columns and labels:
Pseudomonas aeruginosa [1] = test: Growth inhibition of Pseudomonas aeruginosa MH602 at 1 mM after 24 hrs relative to control; conditions: MH602, 24 h, read-out: GI
[2] = system: Pseudomonas aeruginosa PA14; test: Inhibition of quorum sensing-regulated biofilm formation in Pseudomonas aeruginosa PA14 at 2 mM after overnight incubation by crystal violet staining based assay relative to control
Pseudomonas aeruginosa [3] = test: Growth inhibition of Pseudomonas aeruginosa MH602 at 500 uM after 24 hrs relative to control; conditions: MH602, 24 h, read-out: GI
[4] = system: Pseudomonas aeruginosa PA14; test: Inhibition of quorum sensing-regulated pyocyanin production in Pseudomonas aeruginosa PA14 at 2 mM after 24 hrs relative to control
Pseudomonas aeruginosa [5] = test: Growth inhibition of Pseudomonas aeruginosa MH602 at 2 mM after 24 hrs relative to control; conditions: MH602, 24 h, read-out: GI
Pseudomonas aeruginosa [6] = test: Inhibition of LasR-dependent quorum sensing activity in Pseudomonas aeruginosa MH602 harboring GFP-fused […] LasB promoter assessed as inhibition of 3-oxo-dodecanoyl HSL-induced GFP expression at 2 mM measured after 24 hrs by fluorescence assay relative to control
Pseudomonas aeruginosa [7] = test: Growth inhibition of Pseudomonas aeruginosa PA14 at 2 mM after 24 hrs relative to control; conditions: 2000 µM
Escherichia coli [8] = test: Growth inhibition of Escherichia coli MT102 at 2 mM after 24 hrs relative to control; conditions: MT102, 24 h, read-out: GI
Escherichia coli [9] = test: Inhibition of LuxR-dependent quorum sensing activity in Escherichia coli MT102 harboring pJBA132 assessed as inhibition of OHHL-induced GFP expression at 2 mM measured after 24 hrs by fluorescence assay relative to control
Pseudomonas aeruginosa [10] = test: Growth inhibition of Pseudomonas aeruginosa MH602 at 500 uM after 8 hrs relative to control; conditions: MH602, 8 h, read-out: GI
Escherichia coli [11] = test: Growth inhibition of Escherichia coli MT102 at 1 mM after 24 hrs relative to control; conditions: MT102, 24 h, read-out: GI
Pseudomonas aeruginosa [12] = test: Inhibition of LasR-dependent quorum sensing activity in Pseudomonas aeruginosa MH602 harboring GFP-fused […] LasB promoter assessed as inhibition of 3-oxo-dodecanoyl HSL-induced GFP expression at 500 uM measured after 24 hrs by fluorescence assay relative to control
Pseudomonas aeruginosa [13] = test: Inhibition of LasR-dependent quorum sensing activity in Pseudomonas aeruginosa MH602 harboring GFP-fused […] LasB promoter assessed as inhibition of 3-oxo-dodecanoyl HSL-induced GFP expression at 1 mM measured after 8 hrs by fluorescence assay relative to control
Escherichia coli [14] = test: Growth inhibition of Escherichia coli MT102 at 500 uM after 24 hrs relative to control; conditions: MT102, 24 h, read-out: GI
Pseudomonas aeruginosa [15] = test: Growth inhibition of Pseudomonas aeruginosa MH602 at 2 mM after 8 hrs relative to control; conditions: MH602, 8 h, read-out: GI
Escherichia coli [16] = test: Growth inhibition of Escherichia coli MT102 at 1 mM after 8 hrs relative to control; conditions: MT102, 8 h, read-out: GI
Escherichia coli [17] = test: Growth inhibition of Escherichia coli MT102 at 500 uM after 8 hrs relative to control; conditions: MT102, 8 h, read-out: GI
Pseudomonas aeruginosa [18] = test: Inhibition of LasR-dependent quorum sensing activity in Pseudomonas aeruginosa MH602 harboring GFP-fused […] LasB promoter assessed as inhibition of 3-oxo-dodecanoyl HSL-induced GFP expression at 1 mM measured after 24 hrs by fluorescence assay relative to control
Escherichia coli [19] = test: Growth inhibition of Escherichia coli MT102 at 2 mM after 8 hrs relative to control; conditions: MT102, 8 h, read-out: GI
Pseudomonas aeruginosa [20] = test: Growth inhibition of Pseudomonas aeruginosa MH602 at 1 mM after 8 hrs relative to control; conditions: MH602, 8 h, read-out: GI
Pseudomonas aeruginosa [21] = test: Inhibition of LasR-dependent quorum sensing activity in Pseudomonas aeruginosa MH602 harboring GFP-fused […] LasB promoter assessed as inhibition of 3-oxo-dodecanoyl HSL-induced GFP expression at 500 uM measured after 8 hrs by fluorescence assay relative to control
Escherichia coli [22] = test: Inhibition of LuxR-dependent quorum sensing activity in Escherichia coli MT102 harboring pJBA132 assessed as inhibition of OHHL-induced GFP expression at 1 mM measured after 8 hrs by fluorescence assay relative to control
Pseudomonas aeruginosa [23] = test: Inhibition of LasR-dependent quorum sensing activity in Pseudomonas aeruginosa MH602 harboring GFP-fused […] LasB promoter assessed as inhibition of 3-oxo-dodecanoyl HSL-induced GFP expression at 2 mM measured after 8 hrs by fluorescence assay relative to control
Escherichia coli [24] = test: Inhibition of LuxR-dependent quorum sensing activity in Escherichia coli MT102 harboring pJBA132 assessed as inhibition of OHHL-induced GFP expression at 2 mM measured after 8 hrs by fluorescence assay relative to control
Escherichia coli [25] = test: Inhibition of LuxR-dependent quorum sensing activity in Escherichia coli MT102 harboring pJBA132 assessed as inhibition of OHHL-induced GFP expression at 1 mM measured after 24 hrs by fluorescence assay relative to control
Escherichia coli [26] = test: Inhibition of LuxR-dependent quorum sensing activity in Escherichia coli MT102 harboring pJBA132 assessed as inhibition of OHHL-induced GFP expression at 500 uM measured after 8 hrs by fluorescence assay relative to control

SMILES: CC(=O)OC[C@H]1O[C@@H](OC(C)=O)[C@H](NC(=O)Cc2c[nH]c3ccccc23)[C@@H](OC(C)=O)[C@@H]1OC(C)=O
- inhibition at 1000 µM (Pseudomonas aeruginosa [1]): 0%
- inhibition [2]: 0.5%
- inhibition at 500 µM (Pseudomonas aeruginosa [3]): 0%
- inhibition [4]: 1.5%
- inhibition at 2000 µM (Pseudomonas aeruginosa [5]): 4.6%
- inhibition (Pseudomonas aeruginosa [6]): 12.5%
- growth inhibition (GI) (Pseudomonas aeruginosa [7]): Non-Toxic
- inhibition at 2000 µM (Escherichia coli [8]): 15.1%
- inhibition (Escherichia coli [9]): 24.2%
- inhibition at 500 µM (Pseudomonas aeruginosa [10]): 0%
- inhibition at 1000 µM (Escherichia coli [11]): 1.8%
- inhibition (Pseudomonas aeruginosa [12]): 12.1%
- inhibition (Pseudomonas aeruginosa [13]): 4%
- inhibition at 500 µM (Escherichia coli [14]): 2.8%
- inhibition at 2000 µM (Pseudomonas aeruginosa [15]): 0%
- inhibition at 1000 µM (Escherichia coli [16]): 0%
- inhibition at 500 µM (Escherichia coli [17]): 0%
- inhibition (Pseudomonas aeruginosa [18]): 12.5%
- inhibition at 2000 µM (Escherichia coli [19]): 0%
- inhibition at 1000 µM (Pseudomonas aeruginosa [20]): 0%

SMILES: CCCCCC(=O)N[C@H]1[C@H](OC(C)=O)O[C@H](COC(C)=O)[C@@H](OC(C)=O)[C@@H]1OC(C)=O
- inhibition at 1000 µM (Pseudomonas aeruginosa [1]): 4.5%
- inhibition (Pseudomonas aeruginosa [21]): 3.5%
- inhibition at 500 µM (Pseudomonas aeruginosa [3]): 0%
- inhibition at 2000 µM (Pseudomonas aeruginosa [5]): 6.8%
- inhibition (Pseudomonas aeruginosa [6]): 22.8%
- growth inhibition (GI) (Pseudomonas aeruginosa [7]): Non-Toxic
- inhibition at 2000 µM (Escherichia coli [8]): 15.2%
- inhibition (Escherichia coli [9]): 17.2%
- inhibition at 500 µM (Pseudomonas aeruginosa [10]): 3%
- inhibition at 1000 µM (Escherichia coli [11]): 10.8%
- inhibition (Pseudomonas aeruginosa [12]): 3.1%
- inhibition (Escherichia coli [22]): 14.6%
- inhibition (Pseudomonas aeruginosa [13]): 10.5%
- inhibition at 500 µM (Escherichia coli [14]): 2.2%
- inhibition at 2000 µM (Pseudomonas aeruginosa [15]): 9.5%
- inhibition (Pseudomonas aeruginosa [23]): 4%
- inhibition (Escherichia coli [24]): 11.6%
- inhibition at 1000 µM (Escherichia coli [16]): 16.9%
- inhibition at 500 µM (Escherichia coli [17]): 20.5%
- inhibition (Pseudomonas aeruginosa [18]): 2.6%
- inhibition at 2000 µM (Escherichia coli [19]): 30.3%
- inhibition (Escherichia coli [25]): 6.6%
- inhibition at 1000 µM (Pseudomonas aeruginosa [20]): 2.7%

SMILES: CC(=O)OC[C@H]1O[C@@H](OC(C)=O)[C@H](NC(=O)Cc2ccc(C(F)(F)F)cc2)[C@@H](OC(C)=O)[C@@H]1OC(C)=O
- inhibition at 1000 µM (Pseudomonas aeruginosa [1]): 0%
- inhibition [2]: 19.3%
- inhibition (Escherichia coli [26]): 8.6%
- inhibition (Pseudomonas aeruginosa [21]): 2.5%
- inhibition at 500 µM (Pseudomonas aeruginosa [3]): 0%
- inhibition at 2000 µM (Pseudomonas aeruginosa [5]): 0%
- inhibition (Pseudomonas aeruginosa [6]): 7%
- growth inhibition (GI) (Pseudomonas aeruginosa [7]): Non-Toxic
- inhibition at 2000 µM (Escherichia coli [8]): 0%
- inhibition (Escherichia coli [9]): 61.7%
- inhibition at 500 µM (Pseudomonas aeruginosa [10]): 0%
- inhibition at 1000 µM (Escherichia coli [11]): 1.1%
- inhibition (Pseudomonas aeruginosa [12]): 5.9%
- inhibition (Escherichia coli [22]): 13%
- inhibition (Pseudomonas aeruginosa [13]): 9.2%
- inhibition at 500 µM (Escherichia coli [14]): 0.9%
- inhibition at 2000 µM (Pseudomonas aeruginosa [15]): 0%
- inhibition (Pseudomonas aeruginosa [23]): 20.1%
- inhibition (Escherichia coli [24]): 11.3%
- inhibition at 1000 µM (Escherichia coli [16]): 0%
- inhibition at 500 µM (Escherichia coli [17]): 0%
- inhibition (Pseudomonas aeruginosa [18]): 5.6%
- inhibition at 2000 µM (Escherichia coli [19]): 0%
- inhibition (Escherichia coli [25]): 27.2%
- inhibition at 1000 µM (Pseudomonas aeruginosa [20]): 0%

SMILES: O=C(Cc1ccc(C(F)(F)F)cc1)N[C@@H]1[C@@H](O)[C@H](O)[C@@H](CO)O[C@H]1O
- inhibition at 1000 µM (Pseudomonas aeruginosa [1]): 7.8%
- inhibition [2]: 17.8%
- inhibition (Escherichia coli [26]): 11.4%
- inhibition (Pseudomonas aeruginosa [21]): 2.4%
- inhibition at 500 µM (Pseudomonas aeruginosa [3]): 4.4%
- inhibition [4]: 6.6%
- inhibition at 2000 µM (Pseudomonas aeruginosa [5]): 5.8%
- inhibition (Pseudomonas aeruginosa [6]): 10.6%
- growth inhibition (GI) (Pseudomonas aeruginosa [7]): Non-Toxic
- inhibition at 2000 µM (Escherichia coli [8]): 2.5%
- inhibition at 500 µM (Pseudomonas aeruginosa [10]): 0%
- inhibition at 1000 µM (Escherichia coli [11]): 0%
- inhibition (Pseudomonas aeruginosa [12]): 10.6%
- inhibition (Escherichia coli [22]): 10.1%
- inhibition (Pseudomonas aeruginosa [13]): 7.1%
- inhibition at 500 µM (Escherichia coli [14]): 1.2%
- inhibition at 2000 µM (Pseudomonas aeruginosa [15]): 0%
- inhibition (Pseudomonas aeruginosa [23]): 3.3%
- inhibition (Escherichia coli [24]): 12.8%
- inhibition at 1000 µM (Escherichia coli [16]): 0%
- inhibition at 500 µM (Escherichia coli [17]): 0%
- inhibition (Pseudomonas aeruginosa [18]): 10.3%
- inhibition at 2000 µM (Escherichia coli [19]): 0%
- inhibition at 1000 µM (Pseudomonas aeruginosa [20]): 0%

SMILES: O=C(Cc1ccc(Cl)cc1)N[C@@H]1[C@@H](O)[C@H](O)[C@@H](CO)O[C@H]1O
- inhibition at 1000 µM (Pseudomonas aeruginosa [1]): 0%
- inhibition [2]: 15.3%
- inhibition (Escherichia coli [26]): 5.6%
- inhibition at 500 µM (Pseudomonas aeruginosa [3]): 0%
- inhibition [4]: 11.9%
- inhibition at 2000 µM (Pseudomonas aeruginosa [5]): 0%
- inhibition (Pseudomonas aeruginosa [6]): 8.7%
- growth inhibition (GI) (Pseudomonas aeruginosa [7]): Non-Toxic
- inhibition at 2000 µM (Escherichia coli [8]): 4.5%
- inhibition (Escherichia coli [9]): 2.8%
- inhibition at 500 µM (Pseudomonas aeruginosa [10]): 1.3%
- inhibition at 1000 µM (Escherichia coli [11]): 7.4%
- inhibition (Pseudomonas aeruginosa [12]): 7%
- inhibition (Escherichia coli [22]): 2%
- inhibition (Pseudomonas aeruginosa [13]): 3.4%
- inhibition at 500 µM (Escherichia coli [14]): 11.2%
- inhibition at 2000 µM (Pseudomonas aeruginosa [15]): 0%
- inhibition (Escherichia coli [24]): 4.3%
- inhibition at 1000 µM (Escherichia coli [16]): 0%
- inhibition at 500 µM (Escherichia coli [17]): 0%
- inhibition (Pseudomonas aeruginosa [18]): 7%
- inhibition at 2000 µM (Escherichia coli [19]): 0%
- inhibition (Escherichia coli [25]): 4.6%
- inhibition at 1000 µM (Pseudomonas aeruginosa [20]): 0%

SMILES: CC(=O)OC[C@H]1O[C@@H](OC(C)=O)[C@H](NC(=O)Cc2ccc(F)cc2)[C@@H](OC(C)=O)[C@@H]1OC(C)=O
- inhibition at 1000 µM (Pseudomonas aeruginosa [1]): 0%
- inhibition [2]: 45.6%
- inhibition (Escherichia coli [26]): 14.1%
- inhibition (Pseudomonas aeruginosa [21]): 5.9%
- inhibition at 500 µM (Pseudomonas aeruginosa [3]): 0%
- inhibition at 2000 µM (Pseudomonas aeruginosa [5]): 0%
- inhibition (Pseudomonas aeruginosa [6]): 5.7%
- growth inhibition (GI) (Pseudomonas aeruginosa [7]): Non-Toxic
- inhibition at 2000 µM (Escherichia coli [8]): 0%
- inhibition (Escherichia coli [9]): 61.1%
- inhibition at 500 µM (Pseudomonas aeruginosa [10]): 0%
- inhibition at 1000 µM (Escherichia coli [11]): 9.4%
- inhibition (Escherichia coli [22]): 14%
- inhibition (Pseudomonas aeruginosa [13]): 7.3%
- inhibition at 500 µM (Escherichia coli [14]): 11.8%
- inhibition at 2000 µM (Pseudomonas aeruginosa [15]): 0%
- inhibition (Pseudomonas aeruginosa [23]): 7.4%
- inhibition (Escherichia coli [24]): 17.1%
- inhibition at 1000 µM (Escherichia coli [16]): 0%
- inhibition at 500 µM (Escherichia coli [17]): 0%
- inhibition (Pseudomonas aeruginosa [18]): 4.3%
- inhibition at 2000 µM (Escherichia coli [19]): 0%
- inhibition (Escherichia coli [25]): 1.3%
- inhibition at 1000 µM (Pseudomonas aeruginosa [20]): 0%
